70 compounds from PubChem BioAssay AID608 (Sanford-Burnham Center for Chemical Genomics, 2007) can be followed below.

Active and inactive are the calls of the source. No rule for the calls is given here.

Sequence of Peptidyl-prolyl cis-trans isomerase FKBP1A (Homo sapiens) (P62942 whole entry, looked up): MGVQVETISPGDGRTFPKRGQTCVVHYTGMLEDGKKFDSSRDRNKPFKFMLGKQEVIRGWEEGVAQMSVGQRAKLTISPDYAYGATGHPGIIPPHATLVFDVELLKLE

The experiment concerns the target Peptidyl-prolyl cis-trans isomerase FKBP1A (Homo sapiens) (UniProt P62942). Description: FKBP12 binders, biophysical, NMR detection (AID 608). The conditions noted are these: NMR binding, purified FKBP12.
Consider `CN1C2CC(OC(=O)[C@H](CO)c3ccccc3)C[C@H]1[C@H]1OC21` (stereo not given in full), for which the Kd (as a rule, the equilibrium constant for the complex coming apart) is > 4 mM (inactive).
With `Cc1cc(NC(=O)Cc2cccs2)no1`, the Kd was > 4 mM (inactive).
Regarding `CCc1noc(C)c1C(=O)N1CCOCC1`, the Kd was > 4 mM (inactive).
Turning to `CCOC(=O)c1c(C)nc2sccn12`, the Kd is > 4 mM (inactive).
`CCOC(=O)CSCC(=O)Nc1nccs1`: the Kd was > 4 mM (inactive).
For the compound `O=C1CNC(=O)/C1=C/c1ccc(O)cc1`, the Kd was > 4 mM (inactive).
For `O=C(NC1=NCCS1)c1cccc(F)c1` the value was > 4 mM (inactive); for `Cn1nnc2cc(C(=O)NC3CCCCC3)ccc21`, > 4 mM (inactive); for `COc1ccc(C)cc1S(=O)(=O)Nc1ccccc1C`, > 4 mM (inactive).
For `O=C(NN1C(=O)c2ccccc2C1=O)c1cccs1` the value was > 4 mM (inactive); for `C/C=C(\C)C(=O)O[C@H]1C[C@@H](OC(C)=O)[C@@]2(C(=O)OC)CO[C@@H]3C2[C@]12CO[C@](O)(C(=O)OC)[C@H]2[C@](C)(C12O[C@@]1(C)[C@H]1C[C@@H]2OC2OC=C[C@@]21O)[C@@H]3O` (stereo not given in full), > 4 mM (inactive); for `CC1(C)CC[C@]2(C(=O)O)CC[C@]3(C)C(=CCC4[C@@]5(C)CC[C@H](O)[C@@](C)(CO)C5CC[C@]43C)C2C1` (stereo not given in full), > 4 mM (inactive).
For `O=C(Nc1cccc(O)c1)c1ccccc1` the value was > 4 mM (inactive); for `COc1ccc(/C=C2/SC(N)=NC2=O)c(OC)c1`, > 4 mM (inactive).
For `Cc1c(O)c(O)cc2c1CC=C1[C@@]2(C)CC[C@@]2(C)C3C[C@](C)(C(=O)O)CC[C@]3(C)CC[C@]12C` (stereo not given in full), the Kd was > 4 mM (inactive).
On to `OCc1cc(-c2cccs2)on1`, for which the Kd was > 4 mM (inactive).
For `COC(=O)c1ccc2nc[nH]c2c1` the value was > 4 mM (inactive); for `CC(C)c1ccc2c(c1)CCC1C(C)(C(N)=O)CCCC21C` (stereo not given), > 4 mM (inactive).
As for `CN(C)S(=O)(=O)c1ccc(NC=O)cc1`, the Kd was > 4 mM (inactive).
For `COCC(=O)/C=C1\Sc2ccccc2N1C`, the Kd was > 4 mM (inactive).
As to `COc1ccc2nc(N)sc2c1`, the Kd is > 4 mM (inactive).
For `O=C1NC(=S)NC(=O)C1=Cc1ccncc1` the value was > 4 mM (inactive); for `COc1ccc(/C=C2/N=C(N)SC2=O)cc1`, > 4 mM (inactive); for `Cc1cccc(OCc2nnc(N)s2)c1`, > 4 mM (inactive).
Consider `Cc1nn(-c2ccccc2)nc1CN`, for which the Kd is > 4 mM (inactive).
Under `C/C=C(/C)C(=O)O[C@H]1CC[C@@]2(C)[C@@H]3CC[C@H]4[C@]5(O)C[C@H](O)[C@@]6(O)[C@@H](CN7C[C@@H](C)CC[C@H]7[C@@]6(C)O)[C@]5(O)C[C@@]42OC13O` stands > 4 mM (inactive).
In the case of `OCC1COc2ccccc2O1` (stereo not given), the Kd was > 4 mM (inactive).
As for `CC(=O)O[C@H]1C[C@@]2(C)[C@@H](C[C@@H](O)C3[C@]2(C)CC[C@H]2[C@H](C)[C@H](O)CC[C@]32C)/C1=C(/CCC=C(C)C)C(=O)O` (stereo not given in full), the Kd is > 4 mM (inactive).
Regarding `CC(C)=CCC1=C(O)c2ccccc2C(=O)C1=O`, the Kd is > 4 mM (inactive).
Under `Cc1nc2nc(Cc3ccccc3)nn2c(C)c1Cl` stands > 4 mM (inactive).
As for `O=S(=O)(Nc1cccnc1Cl)c1ccccc1`, the Kd is > 4 mM (inactive).
For `Cc1cc(NC(=O)c2cccc(S(C)(=O)=O)c2)no1` the value was > 4 mM (inactive); for `Cc1oc(S(=O)(=O)N2CCCCC2)cc1C(=O)O`, > 4 mM (inactive); for `CC(=O)OCC(OC(C)=O)C(OC(C)=O)C(OC(C)=O)C(OC(C)=O)C(COC(C)=O)OC(C)=O` (stereo not given), > 4 mM (inactive).
Under `O=C(NCc1cccc(Cl)c1)c1ccco1` stands > 4 mM (inactive); under `O=C(O)CN1C(=O)c2ccc(C(=O)O)cc2C1=O`, > 4 mM (inactive).
Regarding `Cn1c(=O)c2[nH]c(Nc3ccccc3)nc2n(C)c1=O`, the Kd was > 4 mM (inactive).
Under `CCn1c2ccccc2c2nn(C)c(=N)nc21` stands > 4 mM (inactive).
Under `Cn1nnc2cc(C(=O)Nc3cccnc3)ccc21` stands > 4 mM (inactive); under `O=C(Nc1ccncc1)c1cncc(Br)c1`, > 4 mM (inactive).
For `O=c1c(O)c(-c2ccccc2)oc2ccc3occc3c12` the value was > 4 mM (inactive); for `NC12CC3CC(C1)CC(C(=O)O)(C3)C2`, > 4 mM (inactive); for `OC1(c2ccc(Cl)cc2)CCNCC1`, > 4 mM (inactive).
Regarding `CC1(C)Cn2c(nnc2-c2ccccc2)S1`, the Kd is > 4 mM (inactive).
Take `CC1(C)CC[C@]2(C)CC[C@]3(C)C(=CCC4[C@@]5(C)CC[C@H](O)C(C)(C)C5CC[C@]43C)C2C1` (stereo not given in full): the Kd was > 4 mM (inactive).
In the case of `NC(=O)C1(S(=O)(=O)c2ccccc2)CC1`, the Kd is > 4 mM (inactive).
For `COc1ccc(C(=O)NC2=NCCS2)cc1OC` the value was > 4 mM (inactive); for `Cc1cc(C)n(CCCC(=O)O)n1`, > 4 mM (inactive).
For `COc1ccccc1-c1n[nH]c(=O)o1` the value was > 4 mM (inactive); for `COc1ccc2c(=O)c(CC(=O)O)coc2c1`, > 4 mM (inactive).
For `Cc1cccc(-n2c(N)cc(=O)[nH]c2=S)c1` the value was > 4 mM (inactive); for `Cc1nc2ccccc2c(=O)n1/N=C/c1ccco1`, > 4 mM (inactive).
For the compound `Cn1c2c(c(=O)n(C)c1=O)CN(Cc1ccco1)CN2`, the Kd was > 4 mM (inactive).
Take `CC(=O)c1ccc(NC(=O)c2ocnc2C)cc1`: the Kd was > 4 mM (inactive).
Under `O=C(NC(O)C(=O)c1ccccc1)c1ccco1` (stereo not given) stands > 4 mM (inactive); under `Cc1cc(=O)oc2cc(O)c(O)cc12`, > 4 mM (inactive); under `CSc1n[nH]c(NCc2cccs2)n1`, > 4 mM (inactive).
With `c1ccc2c(c1)nc(-c1cscn1)n2Cc1ccc(-c2nn[nH]n2)cc1`, the Kd result is “inactive”.
Take `CN(C)C(=O)c1ccccc1-c1ccccc1`: the Kd was > 4 mM (inactive).
For `COc1ccc2[nH]cc(CCN(C)C)c2c1` the value was > 4 mM (inactive); for `N=C1/C(=C\c2ccccc2)C(=O)N=C2SC=NN12`, > 4 mM (inactive); for `CC(=O)N1CCN(c2ccc(N)cc2)CC1`, > 4 mM (inactive).
For `Cc1[nH]c2ccccc2c(=O)c1CO` the value was > 4 mM (inactive); for `NC(=O)C1CCN(C(=S)Nc2ccccc2)CC1`, > 4 mM (inactive); for `Cc1cc2c(N)cccc2nn1`, > 4 mM (inactive).
As to `O=C(O)CN1CCN(C2CCCC2)CC1`, the Kd is > 4 mM (inactive).
For `Cc1c(CO)cnn1-c1ccc(F)cc1`, the Kd was > 4 mM (inactive).
For `Cc1nnc(Nc2ccc(S(N)(=O)=O)cc2)[nH]c1=O` the value was > 4 mM (inactive); for `CC(=O)N1CCc2cc(NC(=O)c3ccc(C)cc3)ccc21`, > 4 mM (inactive).
As for `CC(C)=CCCC1(C)C=Cc2c(O)c3c(c(CC=C(C)C)c2O1)OC12C(=CCCC1C(C)(C)O[C@@]2(C/C=C(\C)C(=O)O)C(=O)O)C3=O` (stereo not given in full), the Kd was > 4 mM (inactive).
